Calls of active or inactive are those of the source. Rule as the data show it, for most assays here: actives have a measured Kd and inactives only a lower limit. Where only a bound is given, the exact number is not on record here.

Experiment [1] deals with AP2-associated protein kinase 1 (Homo sapiens, UniProt Q2M2I8).
In experiment [2] the target is T1, Serine/threonine-protein kinase Nek2 (Homo sapiens, UniProt P51955).
T1 sequence (P51955 whole entry): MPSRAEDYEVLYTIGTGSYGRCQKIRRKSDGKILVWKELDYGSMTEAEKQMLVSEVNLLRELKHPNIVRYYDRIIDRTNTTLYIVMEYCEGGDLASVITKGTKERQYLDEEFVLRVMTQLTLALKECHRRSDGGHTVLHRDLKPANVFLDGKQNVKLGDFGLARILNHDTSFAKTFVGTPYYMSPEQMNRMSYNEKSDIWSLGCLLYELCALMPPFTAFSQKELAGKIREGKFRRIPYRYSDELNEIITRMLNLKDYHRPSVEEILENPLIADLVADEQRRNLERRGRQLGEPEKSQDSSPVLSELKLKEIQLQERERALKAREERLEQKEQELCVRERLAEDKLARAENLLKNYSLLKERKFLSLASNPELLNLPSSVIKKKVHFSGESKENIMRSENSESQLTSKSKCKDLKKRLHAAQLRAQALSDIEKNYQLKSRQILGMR

Another experiment concerns the target T2, Pyridoxal kinase (Homo sapiens, UniProt O00764).
T2 sequence (O00764 whole entry): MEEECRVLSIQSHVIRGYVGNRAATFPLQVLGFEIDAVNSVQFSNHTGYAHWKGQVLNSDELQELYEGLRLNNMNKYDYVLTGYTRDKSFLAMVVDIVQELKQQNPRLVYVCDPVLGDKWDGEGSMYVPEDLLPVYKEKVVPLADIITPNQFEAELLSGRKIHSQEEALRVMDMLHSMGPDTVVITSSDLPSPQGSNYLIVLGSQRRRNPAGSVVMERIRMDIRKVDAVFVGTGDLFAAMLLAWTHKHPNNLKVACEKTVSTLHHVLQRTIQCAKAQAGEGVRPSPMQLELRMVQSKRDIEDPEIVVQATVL

In experiment [3] the target is Cyclin-dependent kinase 2 (Homo sapiens, UniProt P24941).
A further experiment has as its target TGF-beta receptor type-2 (Homo sapiens, UniProt P37173).
Experiment [4] deals with T3, AarF domain-containing protein kinase 1 (Homo sapiens, UniProt Q86TW2).
T3 sequence (Q86TW2 whole entry): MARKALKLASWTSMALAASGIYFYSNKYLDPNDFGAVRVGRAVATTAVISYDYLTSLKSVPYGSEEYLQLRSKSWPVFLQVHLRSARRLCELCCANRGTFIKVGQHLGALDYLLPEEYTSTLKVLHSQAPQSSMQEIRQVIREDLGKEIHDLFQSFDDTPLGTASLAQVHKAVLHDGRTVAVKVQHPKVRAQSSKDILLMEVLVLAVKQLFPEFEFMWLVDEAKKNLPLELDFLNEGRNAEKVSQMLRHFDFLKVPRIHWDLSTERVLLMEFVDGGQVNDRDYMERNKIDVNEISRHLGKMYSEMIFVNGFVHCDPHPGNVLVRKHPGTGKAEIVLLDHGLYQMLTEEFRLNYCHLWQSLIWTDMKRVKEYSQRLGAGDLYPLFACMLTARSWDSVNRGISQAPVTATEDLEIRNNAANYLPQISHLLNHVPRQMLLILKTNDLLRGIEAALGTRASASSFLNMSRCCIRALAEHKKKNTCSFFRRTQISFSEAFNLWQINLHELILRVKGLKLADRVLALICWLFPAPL

Experiment [5] has as its target Rho-associated protein kinase 2 (Homo sapiens, UniProt O75116).
Experiment [6] deals with T4, Ras-related protein Rab-27A (Homo sapiens, UniProt P51159).
T4 sequence (P51159 whole entry): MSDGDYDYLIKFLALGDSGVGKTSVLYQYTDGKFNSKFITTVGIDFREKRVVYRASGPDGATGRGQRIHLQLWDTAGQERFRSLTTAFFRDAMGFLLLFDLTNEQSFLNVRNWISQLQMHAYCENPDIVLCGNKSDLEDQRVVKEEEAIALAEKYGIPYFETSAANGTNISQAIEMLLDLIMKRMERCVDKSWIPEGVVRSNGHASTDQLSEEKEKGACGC

The target in experiment [7] is Protein kinase C alpha type (Homo sapiens, UniProt P17252).
Experiment [8] concerns the target T5, Glycogen phosphorylase, liver form (Homo sapiens, UniProt P06737).
T5 sequence (P06737 whole entry): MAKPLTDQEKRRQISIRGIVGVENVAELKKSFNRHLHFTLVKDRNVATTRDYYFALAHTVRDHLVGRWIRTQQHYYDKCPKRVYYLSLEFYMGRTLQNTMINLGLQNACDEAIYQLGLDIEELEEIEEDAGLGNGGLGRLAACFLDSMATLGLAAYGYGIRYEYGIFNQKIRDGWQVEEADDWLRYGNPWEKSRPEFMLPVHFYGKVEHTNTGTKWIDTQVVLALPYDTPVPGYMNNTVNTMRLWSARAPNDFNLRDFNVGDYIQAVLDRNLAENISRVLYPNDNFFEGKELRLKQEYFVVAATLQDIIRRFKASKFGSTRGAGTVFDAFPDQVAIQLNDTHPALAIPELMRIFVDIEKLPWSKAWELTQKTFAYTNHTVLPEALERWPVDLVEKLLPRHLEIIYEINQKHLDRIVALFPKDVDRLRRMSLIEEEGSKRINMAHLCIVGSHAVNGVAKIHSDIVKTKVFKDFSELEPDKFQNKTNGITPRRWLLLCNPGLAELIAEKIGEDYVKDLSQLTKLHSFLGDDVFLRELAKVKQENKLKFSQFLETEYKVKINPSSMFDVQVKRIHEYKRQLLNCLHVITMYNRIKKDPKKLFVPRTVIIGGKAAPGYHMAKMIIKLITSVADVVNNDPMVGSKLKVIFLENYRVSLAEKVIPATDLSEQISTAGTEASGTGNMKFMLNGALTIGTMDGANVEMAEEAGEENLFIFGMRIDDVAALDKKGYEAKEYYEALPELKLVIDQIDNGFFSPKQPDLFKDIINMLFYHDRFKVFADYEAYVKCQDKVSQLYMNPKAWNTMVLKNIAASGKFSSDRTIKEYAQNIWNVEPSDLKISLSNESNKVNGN
Type of experiment: subcellular, K-562, COLO 205, SK-N-BE(2) and MV-4-11, Cell lysate. The conditions noted are these: read-out: Kd apparent.

Experiment [9] concerns the target S-adenosylmethionine synthase isoform type-2 (Homo sapiens, UniProt P31153).
The target of experiment [10] is Casein kinase I isoform epsilon (Homo sapiens, UniProt P49674).
Chain of Casein kinase I isoform epsilon (P49674 whole entry, canonical isoform): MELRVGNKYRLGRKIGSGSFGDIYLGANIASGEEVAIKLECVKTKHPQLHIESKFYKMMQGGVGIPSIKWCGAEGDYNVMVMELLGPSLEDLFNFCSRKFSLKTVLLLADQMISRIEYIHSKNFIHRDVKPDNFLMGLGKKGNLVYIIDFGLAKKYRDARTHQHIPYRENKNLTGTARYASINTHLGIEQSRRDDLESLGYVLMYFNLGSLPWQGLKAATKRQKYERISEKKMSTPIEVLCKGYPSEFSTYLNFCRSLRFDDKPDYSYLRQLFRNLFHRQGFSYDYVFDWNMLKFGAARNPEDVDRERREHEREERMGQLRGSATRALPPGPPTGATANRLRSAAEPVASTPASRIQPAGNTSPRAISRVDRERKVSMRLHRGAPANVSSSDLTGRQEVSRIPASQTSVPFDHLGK
The target in experiment [11] is ATP-dependent RNA helicase DDX3X (Homo sapiens, UniProt O00571).
Chain of ATP-dependent RNA helicase DDX3X (O00571 whole entry): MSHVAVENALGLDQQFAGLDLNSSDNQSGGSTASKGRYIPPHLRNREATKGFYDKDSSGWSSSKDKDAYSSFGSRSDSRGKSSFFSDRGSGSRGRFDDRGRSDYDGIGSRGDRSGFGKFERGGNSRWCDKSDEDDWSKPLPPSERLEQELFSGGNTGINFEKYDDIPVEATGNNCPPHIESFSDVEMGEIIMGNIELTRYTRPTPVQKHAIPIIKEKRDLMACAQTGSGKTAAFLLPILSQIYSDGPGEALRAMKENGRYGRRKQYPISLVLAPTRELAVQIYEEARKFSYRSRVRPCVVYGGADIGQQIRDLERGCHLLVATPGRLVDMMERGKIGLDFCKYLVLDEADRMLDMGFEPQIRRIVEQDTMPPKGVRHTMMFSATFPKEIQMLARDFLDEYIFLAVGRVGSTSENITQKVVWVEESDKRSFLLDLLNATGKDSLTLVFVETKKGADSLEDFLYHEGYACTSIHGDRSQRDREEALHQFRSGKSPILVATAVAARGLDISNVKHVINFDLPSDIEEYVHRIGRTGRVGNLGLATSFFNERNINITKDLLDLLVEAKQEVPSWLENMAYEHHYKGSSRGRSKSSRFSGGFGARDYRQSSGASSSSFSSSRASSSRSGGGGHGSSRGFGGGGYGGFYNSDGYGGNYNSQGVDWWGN
Also: in the data inactive means no Kd found up to 30 µM.

Chain of AP2-associated protein kinase 1 (Q2M2I8 whole entry): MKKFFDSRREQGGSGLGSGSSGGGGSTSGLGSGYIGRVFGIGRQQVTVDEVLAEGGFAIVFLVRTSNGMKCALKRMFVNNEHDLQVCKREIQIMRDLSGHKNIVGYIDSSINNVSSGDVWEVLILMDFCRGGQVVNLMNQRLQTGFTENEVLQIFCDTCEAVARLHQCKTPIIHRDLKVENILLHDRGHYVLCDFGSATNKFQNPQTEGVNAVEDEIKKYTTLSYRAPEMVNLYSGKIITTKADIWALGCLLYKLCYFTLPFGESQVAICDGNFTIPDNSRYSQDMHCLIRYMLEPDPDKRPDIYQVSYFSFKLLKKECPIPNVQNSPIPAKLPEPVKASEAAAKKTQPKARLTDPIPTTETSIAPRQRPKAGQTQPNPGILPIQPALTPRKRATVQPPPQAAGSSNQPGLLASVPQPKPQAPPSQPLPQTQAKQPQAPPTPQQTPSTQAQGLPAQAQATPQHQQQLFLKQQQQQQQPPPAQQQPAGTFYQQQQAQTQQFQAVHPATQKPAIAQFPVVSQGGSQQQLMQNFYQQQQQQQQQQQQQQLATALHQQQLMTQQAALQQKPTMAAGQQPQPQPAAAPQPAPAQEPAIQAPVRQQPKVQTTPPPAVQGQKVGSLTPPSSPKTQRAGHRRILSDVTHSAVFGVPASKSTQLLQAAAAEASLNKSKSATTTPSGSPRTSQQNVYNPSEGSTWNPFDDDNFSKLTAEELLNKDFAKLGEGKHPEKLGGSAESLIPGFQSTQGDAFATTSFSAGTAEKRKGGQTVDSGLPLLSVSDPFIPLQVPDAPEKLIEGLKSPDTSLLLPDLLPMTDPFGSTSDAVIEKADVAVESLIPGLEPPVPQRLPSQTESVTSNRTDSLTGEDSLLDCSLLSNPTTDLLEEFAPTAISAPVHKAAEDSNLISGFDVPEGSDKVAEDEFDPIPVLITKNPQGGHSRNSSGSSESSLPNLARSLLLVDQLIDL
Chain of TGF-beta receptor type-2 (P37173 whole entry, the tested form may be a part): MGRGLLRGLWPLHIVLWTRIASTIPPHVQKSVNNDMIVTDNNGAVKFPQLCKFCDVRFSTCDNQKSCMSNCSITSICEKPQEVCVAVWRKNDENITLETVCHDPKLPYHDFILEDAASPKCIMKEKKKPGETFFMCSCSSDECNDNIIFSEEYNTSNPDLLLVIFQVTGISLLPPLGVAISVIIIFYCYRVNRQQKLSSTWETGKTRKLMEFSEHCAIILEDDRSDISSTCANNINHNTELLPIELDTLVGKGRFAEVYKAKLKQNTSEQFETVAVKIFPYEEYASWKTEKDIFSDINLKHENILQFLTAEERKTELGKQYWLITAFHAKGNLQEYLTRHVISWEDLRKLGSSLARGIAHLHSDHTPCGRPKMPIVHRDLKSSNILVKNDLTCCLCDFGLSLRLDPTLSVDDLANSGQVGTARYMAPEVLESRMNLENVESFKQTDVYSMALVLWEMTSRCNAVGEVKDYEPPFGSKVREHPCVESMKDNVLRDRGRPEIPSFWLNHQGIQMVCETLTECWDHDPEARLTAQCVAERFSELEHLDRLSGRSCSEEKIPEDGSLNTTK
Chain of Rho-associated protein kinase 2 (O75116 whole entry): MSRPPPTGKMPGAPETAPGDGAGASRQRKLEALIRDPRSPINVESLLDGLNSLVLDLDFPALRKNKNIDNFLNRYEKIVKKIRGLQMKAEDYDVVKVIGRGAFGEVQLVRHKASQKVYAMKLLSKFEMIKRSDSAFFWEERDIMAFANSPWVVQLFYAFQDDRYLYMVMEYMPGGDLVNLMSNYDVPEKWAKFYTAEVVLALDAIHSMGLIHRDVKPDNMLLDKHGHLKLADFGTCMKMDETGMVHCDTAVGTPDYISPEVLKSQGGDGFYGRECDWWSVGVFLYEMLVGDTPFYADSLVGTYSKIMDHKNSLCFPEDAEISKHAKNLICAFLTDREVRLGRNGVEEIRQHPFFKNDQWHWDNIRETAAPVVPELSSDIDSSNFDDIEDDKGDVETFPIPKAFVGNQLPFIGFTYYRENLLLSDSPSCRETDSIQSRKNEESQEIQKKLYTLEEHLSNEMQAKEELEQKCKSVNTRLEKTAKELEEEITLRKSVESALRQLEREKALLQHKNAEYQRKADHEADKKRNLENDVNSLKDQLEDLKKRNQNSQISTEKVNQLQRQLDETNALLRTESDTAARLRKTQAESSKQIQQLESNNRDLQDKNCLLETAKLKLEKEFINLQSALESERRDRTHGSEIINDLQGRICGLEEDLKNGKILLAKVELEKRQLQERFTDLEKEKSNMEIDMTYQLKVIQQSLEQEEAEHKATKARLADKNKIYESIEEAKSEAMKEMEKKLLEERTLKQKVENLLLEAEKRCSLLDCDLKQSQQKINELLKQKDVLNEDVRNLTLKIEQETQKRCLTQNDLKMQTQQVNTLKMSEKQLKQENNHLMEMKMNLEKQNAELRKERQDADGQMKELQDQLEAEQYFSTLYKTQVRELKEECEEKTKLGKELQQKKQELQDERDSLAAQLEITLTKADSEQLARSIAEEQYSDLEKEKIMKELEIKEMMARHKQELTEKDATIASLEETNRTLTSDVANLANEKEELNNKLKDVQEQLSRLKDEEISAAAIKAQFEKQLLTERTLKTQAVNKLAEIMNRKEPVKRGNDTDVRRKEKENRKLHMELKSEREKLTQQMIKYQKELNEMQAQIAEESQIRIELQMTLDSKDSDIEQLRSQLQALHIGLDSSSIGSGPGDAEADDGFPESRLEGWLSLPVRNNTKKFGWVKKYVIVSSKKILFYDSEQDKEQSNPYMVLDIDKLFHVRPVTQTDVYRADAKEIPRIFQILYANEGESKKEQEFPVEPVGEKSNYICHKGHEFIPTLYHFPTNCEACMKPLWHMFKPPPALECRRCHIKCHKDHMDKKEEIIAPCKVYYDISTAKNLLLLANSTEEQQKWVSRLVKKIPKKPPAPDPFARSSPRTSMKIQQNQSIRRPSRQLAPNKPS
Chain of S-adenosylmethionine synthase isoform type-2 (P31153 whole entry, canonical isoform): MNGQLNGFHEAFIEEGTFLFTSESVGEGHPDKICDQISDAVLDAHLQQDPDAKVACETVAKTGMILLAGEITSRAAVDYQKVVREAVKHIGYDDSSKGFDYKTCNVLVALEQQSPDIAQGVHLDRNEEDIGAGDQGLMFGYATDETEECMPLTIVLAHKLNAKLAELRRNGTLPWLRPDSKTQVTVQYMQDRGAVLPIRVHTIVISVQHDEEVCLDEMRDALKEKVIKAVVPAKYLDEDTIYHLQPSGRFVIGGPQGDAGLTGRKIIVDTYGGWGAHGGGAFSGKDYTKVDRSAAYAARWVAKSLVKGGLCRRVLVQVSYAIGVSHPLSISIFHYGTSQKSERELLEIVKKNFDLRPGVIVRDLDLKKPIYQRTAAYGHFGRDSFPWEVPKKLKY

For the compound `NC(=O)c1ccc(N(C(N)=O)c2c(F)cccc2F)nc1-c1ccc(F)cc1F` [VX-702], the Kd (in experiment [1]; in [2]; at Pyridoxal kinase; in [3]; at TGF-beta receptor type-2; in experiment [4]) was > 30 µM (inactive) throughout. Further, the Kd in [5], in [6], in [7], in experiment [8], in experiment [9] and in experiment [10] was > 30 µM (inactive) each time. The Kd in experiment [11] was > 30 µM (inactive).
Take `COCCN1CCN(Cc2ccc(-c3n[nH]c4c3C(=O)c3c(NC(=O)NN5CCOCC5)cccc3-4)cc2)CC1` [RGB-286638]: the Kd was 0.022 µM (active) in [1]; > 30 µM (inactive) in experiment [2]; > 30 µM (inactive) on Pyridoxal kinase; 0.072 µM (active) in experiment [3]; 0.08 µM (active) at TGF-beta receptor type-2; > 30 µM (inactive) in experiment [4]. Besides, the Kd in experiment [5], in experiment [6], in experiment [7], in experiment [8], in experiment [9] and in [10] was > 30 µM (inactive) in each case. The Kd in [11] was > 30 µM (inactive).
For the compound `COc1cccc(Nc2ncnn3ccc(CN4CC[C@@H](N)[C@H](O)C4)c23)c1` [BMS-690514], the Kd in experiment [1] was 1.41 µM (active); in [2], > 30 µM (inactive); on Pyridoxal kinase, > 30 µM (inactive); in experiment [3], > 30 µM (inactive); on TGF-beta receptor type-2, > 30 µM (inactive); in experiment [4], > 30 µM (inactive). The Kd in experiment [5] was > 30 µM (inactive); in experiment [6], > 30 µM (inactive); in experiment [7], 1.56 µM (active); in [8], > 30 µM (inactive); in [9], > 30 µM (inactive); in [10], 3.64 µM (active). In addition, the Kd in experiment [11] was > 30 µM (inactive).
As to `COc1cc(Nc2ncc(F)c(Nc3ccc4c(n3)N(COP(=O)(O)O)C(=O)C(C)(C)O4)n2)cc(OC)c1OC` [FOSTAMATINIB], the Kd in [1] was > 30 µM (inactive); in experiment [2] it was > 30 µM (inactive); on Pyridoxal kinase, > 30 µM (inactive); in experiment [3] it was > 30 µM (inactive); on TGF-beta receptor type-2, > 30 µM (inactive); in experiment [4] it was 1.07 µM (active). In addition, the Kd in experiment [5], in [6], in experiment [7], in [8], in [9] and in [10] was > 30 µM (inactive) in each case. Also, the Kd in experiment [11] is > 30 µM (inactive).
Regarding `C#Cc1cccc(Nc2ncnc3cc4c(cc23)OCCOCCOCCO4)c1` [ICOTINIB], the Kd (in experiment [1]; in experiment [2]; on Pyridoxal kinase; in [3]; on TGF-beta receptor type-2; in experiment [4]) was > 30 µM (inactive) throughout. Also, the Kd in [5], in experiment [6], in [7], in [8], in [9] and in [10] was > 30 µM (inactive) in each case. For the same compound, the Kd in experiment [11] is > 30 µM (inactive).
Take `Cn1cc(-c2[nH]c3cc(NC(=O)[C@H](N)C4CCCCC4)cc4c3c2C=NNC4=O)cn1`: the Kd in [1] is 0.002 µM (active); in experiment [2], > 30 µM (inactive); at Pyridoxal kinase, > 30 µM (inactive); in experiment [3], > 30 µM (inactive); on TGF-beta receptor type-2 it was 0.146 µM (active); in experiment [4], 4.5 µM (active). Besides, the Kd in experiment [5], in [6], in [7], in experiment [8], in [9] and in experiment [10] was > 30 µM (inactive) each time. Further, the Kd in experiment [11] was > 30 µM (inactive).
For `CCOc1ccn(-c2ccc(F)cc2)c(=O)c1C(=O)Nc1ccc(Oc2ccnc(N)c2Cl)c(F)c1` [BMS-777607], the Kd (in [1]; in experiment [2]; at Pyridoxal kinase; in experiment [3]; at TGF-beta receptor type-2; in [4]) was > 30 µM (inactive) in each case. Also, the Kd in experiment [5], in [6], in [7], in experiment [8], in experiment [9] and in [10] was > 30 µM (inactive) each time. In addition, the Kd in experiment [11] was > 30 µM (inactive).
Turning to `COc1cc(F)c(F)c(Nc2ccc(I)cc2F)c1NS(=O)(=O)C1(C[C@H](O)CO)CC1` [REFAMETINIB], the Kd in [1] was > 30 µM (inactive); in experiment [2] it was > 30 µM (inactive); on Pyridoxal kinase, > 30 µM (inactive); in [3], > 30 µM (inactive); on TGF-beta receptor type-2, > 30 µM (inactive); in experiment [4], 0.778 µM. The Kd in experiment [5], in experiment [6], in experiment [7], in [8], in experiment [9] and in experiment [10] was > 30 µM (inactive) each time. In addition, the Kd in experiment [11] is > 30 µM (inactive).

These data come from ChEMBL document CHEMBL3991601, “The target landscape of clinical kinase drugs” (Science, 2017).
